According to US20240336654A1, “ANTIMICROBIAL PEPTIDOMIMETICS” (SPEXIS AG, priority 2021, published 2024):
Where a SMILES comes first, the peptide text is derived from it. Bridges are numbered along the chain shown (N, C = ends). [ ]: non-standard residue; d: D form. Pro(trans-4-F) = O=C(O)[C@@H]1C[C@@H](F)CN1; Pro(cis-4-F) = O=C(O)[C@@H]1C[C@H](F)CN1; Pro(4,4-F2) = O=C(O)[C@@H]1CC(F)(F)CN1; Hyp = O=C(O)[C@@H]1C[C@@H](O)CN1; Pen = CC(C)(S)[C@H](N)C(=O)O; Tle = CC(C)(C)[C@H](N)C(=O)O; dDab = NCC[C@@H](N)C(=O)O; Dab = NCC[C@H](N)C(=O)O; Abu = CC[C@H](N)C(=O)O

Assays:
Type in all cases: cell-based
[1] = system: human red blood cells (hRBC); conditions: red cells of human, 1 h, 200 μg/mL
Method: Lyophilized peptides were weighed on a Microbalance (Mettler MT5) and dissolved in sterile water to a final concentration of 1 mg/mL. Stock solutions were kept at +4° C., light protected. The peptides were tested for their hemolytic activity against human red blood cells (hRBC). Fresh hRBC were washed three times with phosphate buffered saline (PBS) and centrifuged for 5 min at 3000×g. Compounds (200 μg/mL) were incubated with 20% hRBC (v/v) for 1 h at 37° C. and shaking at 300 rpm. A value of 0% and 100% cell lyses, respectively, was determined by incubation of hRBC in the presence of PBS and 2.5% Triton X-100 in H2O, respectively. The samples were centrifuged, the supernatants were 8-fold diluted in PBS buffer and the optical densities (OD) were measured at 540 nm. The 100% lyses value (OD540H2O) gave an OD540 of approximately 0.5-1.0. Percent hemolysis was calculated as follows: (OD540peptide/OD540H2O)×100%.

[2] = system: Klebsiella pneumoniae SSI3010; conditions: SSI3010
Method: (§1) Lyophilized peptides were weighed on a Microbalance (Mettler MT5) and dissolved in sterile water to a final concentration of 1 mg/mL. Stock solutions were kept at +4° C., light protected.
(§2) The selective antimicrobial activities of the peptides were determined in 96-well plates (Greiner, polystyrene) by the standard CLSI broth microdilution method (Clinical and Laboratory Standards Institute. Methods for Dilution Antimicrobial Susceptibility Tests for Bacteria That Grow Aerobically; Approved Standard-Ninth Edition. CLSI document M07-A9 (ISBN 1-56238-783-9 [Print]; ISBN 1-56238-784-7 [Electronic]). Clinical and Laboratory Standards Institute, 950 West Valley Road, Suite 2500, Wayne, Pennsylvania 19087, USA, 2012) with slight modifications.
(§3) Colonies of the microorganisms were diluted in saline (0.85%, NaCl) and adjusted using a McFarland reader (bioMérieux SA, Marcy-l'Etoile, France) to 0.5 McFarland standard. Subsequently, the bacterial suspension was diluted in Mueller-Hinton II (MHII, cation adjusted) broth to give approximately 5×10^5 colony forming units (CFU/mL).
(§4) Inocula of the microorganisms were diluted into Mueller-Hinton II (MH, cation adjusted) broth and compared with a 0.5 McFarland standard to give appr. 10^6 colony forming units (CFU)/mL. Aliquots (90 μl) of inoculate were added to 10 μl of water+P-80 (Polysorbate 80, 0.002% final concentration) containing the peptide in serial two-fold dilutions at 10 fold final concentration. The following microorganisms were used to determine antibiotic selectivity of the peptides: Escherichia coli ATCC 25922, Escherichia coli MCR-1 Af 45 and Klebsiella pneumoniae SSI3010. Antimicrobial activities of the peptides were expressed as the minimal inhibitory concentration (MIC) in μg/mL at which no visible growth was observed after 18-20 hours of incubation at 35° C.

[3] = system: Escherichia coli ATCC 25922; conditions: ATCC 25922
Method: as §1, §2, §3, §4

[4] = system: Escherichia coli MCR-1 Af 45; conditions: MCR-1 Af 45
Method: as §1, §2, §3, §4

Row | Klebsiella pneumoniae SSI3010 MIC [2] | Escherichia coli ATCC 25922 MIC [3] | Escherichia coli MCR-1 Af45 MIC [4] | SMILES | Hemolysis at 0.2 g/L [1]
1 | 0.25 µg/mL | 0.125 µg/mL | 0.03125 µg/mL | CC[C@H](C)[C@H](NC(=O)[C@@H]1C[C@@H](O)CN1C(=O)[C@@H](N)C(C)C)C(=O)N[C@@H]1C(=O)N[C@@H](Cc2ccc(O)cc2)C(=O)N[C@@H](CO)C(=O)N[C@@H](CC(N)=O)C(=O)N[C@@H](CCCNC(=N)N)C(=O)N[C@@H](CCN)C(=O)N[C@@H]([C@@H](C)O)C(=O)N[C@H](CCN)C(=O)N[C@@H](CCCCN)C(=O)N[C@@H](CCN)C(=O)N[C@@H](CCN)C(=O)N[C@H](C(=O)N[C@@H](Cc2ccc(O)cc2)C(=O)O)CSSC1(C)C [Example 1, Val-Hyp-Ile-Pen-Tyr-Ser-Asn-Arg-Dab-Thr-^DDab-Lys-Dab-Dab-Cys-Tyr] (H-V[Hyp]I[Pen]YSNR[Dab]T[dDab]K[Dab][Dab]CY-OH; disulfide 4-15) | <1%
2 | 0.25 µg/mL | 0.25 µg/mL | 0.125 µg/mL | CC[C@H](N)C(=O)N1C[C@H](O)C[C@H]1C(=O)N[C@H](C(=O)N[C@@H]1C(=O)N[C@@H](Cc2ccc(O)cc2)C(=O)N[C@@H](CO)C(=O)N[C@@H](CC(N)=O)C(=O)N[C@@H](CCCNC(=N)N)C(=O)N[C@@H](CCN)C(=O)N[C@@H]([C@@H](C)O)C(=O)N[C@H](CCN)C(=O)N[C@@H](CCCCN)C(=O)N[C@@H](CCN)C(=O)N[C@@H](CCN)C(=O)N[C@H](C(=O)N[C@@H](Cc2ccc(O)cc2)C(=O)O)CSSC1(C)C)[C@@H](C)CC [Example 2, Abu-Hyp-Ile-Pen-Tyr-Ser-Asn-Arg-Dab-Thr-^DDab-Lys-Dab-Dab-Cys-Tyr] (H-[Abu][Hyp]I[Pen]YSNR[Dab]T[dDab]K[Dab][Dab]CY-OH; disulfide 4-15) | <1%
3 | 0.25 µg/mL | 0.125 µg/mL | 0.125 µg/mL | CC[C@H](C)[C@H](NC(=O)[C@@H]1C[C@@H](O)CN1C(=O)[C@@H](N)C(C)(C)C)C(=O)N[C@@H]1C(=O)N[C@@H](Cc2ccc(O)cc2)C(=O)N[C@@H](CO)C(=O)N[C@@H](CC(N)=O)C(=O)N[C@@H](CCCNC(=N)N)C(=O)N[C@@H](CCN)C(=O)N[C@@H]([C@@H](C)O)C(=O)N[C@H](CCN)C(=O)N[C@@H](CCCCN)C(=O)N[C@@H](CCN)C(=O)N[C@@H](CCN)C(=O)N[C@H](C(=O)N[C@@H](Cc2ccc(O)cc2)C(=O)O)CSSC1(C)C [Example 3, tBuGly-Hyp-Ile-Pen-Tyr-Ser-Asn-Arg-Dab-Thr-^DDab-Lys-Dab-Dab-Cys-Tyr] (H-[Tle][Hyp]I[Pen]YSNR[Dab]T[dDab]K[Dab][Dab]CY-OH; disulfide 4-15) | <1%
4 | 0.125 µg/mL | 0.0625 µg/mL | 0.0625 µg/mL | CC[C@H](C)[C@H](NC(=O)[C@@H]1CCCN1C(=O)[C@@H](N)C(C)C)C(=O)N[C@@H]1C(=O)N[C@@H](Cc2ccc(O)cc2)C(=O)N[C@@H](CO)C(=O)N[C@@H](CC(N)=O)C(=O)N[C@@H](CCCNC(=N)N)C(=O)N[C@@H](CCN)C(=O)N[C@@H]([C@@H](C)O)C(=O)N[C@H](CCN)C(=O)N[C@@H](CCCCN)C(=O)N[C@@H](CCN)C(=O)N[C@@H](CCN)C(=O)N[C@H](C(=O)N[C@@H](Cc2ccc(O)cc2)C(=O)O)CSSC1(C)C [Example 4, Val-Pro-Ile-Pen-Tyr-Ser-Asn-Arg-Dab-Thr-^DDab-Lys-Dab-Dab-Cys-Tyr] (H-VPI[Pen]YSNR[Dab]T[dDab]K[Dab][Dab]CY-OH; disulfide 4-15) | <1%
5 | 0.25 µg/mL | 0.125 µg/mL | 0.0625 µg/mL | CC[C@H](C)[C@H](NC(=O)[C@@H]1CCCN1C(=O)[C@@H](N)C(C)C)C(=O)N[C@@H]1C(=O)N[C@@H](Cc2ccc(O)cc2)C(=O)N[C@@H]([C@@H](C)O)C(=O)N[C@@H](CC(N)=O)C(=O)N[C@@H](CCCNC(=N)N)C(=O)N[C@@H](CCN)C(=O)N[C@@H]([C@@H](C)O)C(=O)N[C@H](CCN)C(=O)N[C@@H](CCCCN)C(=O)N[C@@H](CCN)C(=O)N[C@@H](CCN)C(=O)N[C@H](C(=O)N[C@@H](Cc2ccc(O)cc2)C(=O)O)CSSC1(C)C [Example 5, Val-Pro-Ile-Pen-Tyr-Thr-Asn-Arg-Dab-Thr-^DDab-Lys-Dab-Dab-Cys-Tyr] (H-VPI[Pen]YTNR[Dab]T[dDab]K[Dab][Dab]CY-OH; disulfide 4-15) | <1%
6 | 0.25 µg/mL | 0.125 µg/mL | 0.125 µg/mL | CC[C@H](C)[C@H](NC(=O)[C@@H]1C[C@@H](OC)CN1C(=O)[C@@H](N)C(C)C)C(=O)N[C@@H]1C(=O)N[C@@H](Cc2ccc(O)cc2)C(=O)N[C@@H]([C@@H](C)O)C(=O)N[C@@H](CC(N)=O)C(=O)N[C@@H](CCCNC(=N)N)C(=O)N[C@@H](CCN)C(=O)N[C@@H]([C@@H](C)O)C(=O)N[C@H](CCN)C(=O)N[C@@H](CCCCN)C(=O)N[C@@H](CCN)C(=O)N[C@@H](CCN)C(=O)N[C@H](C(=O)N[C@@H](Cc2ccc(O)cc2)C(=O)O)CSSC1(C)C [Example 6, Val-Pro((4R)OMe)-Ile-Pen-Tyr-Thr-Asn-Arg-Dab-Thr-^DDab-Lys-Dab-Dab-Cys-Tyr] (H-V[Hyp](Me)I[Pen]YTNR[Dab]T[dDab]K[Dab][Dab]CY-OH; disulfide 4-15) | <1%
7 | 0.25 µg/mL | 0.125 µg/mL | 0.125 µg/mL | CC[C@H](C)[C@H](NC(=O)[C@@H]1C[C@H](F)CN1C(=O)[C@@H](N)C(C)C)C(=O)N[C@@H]1C(=O)N[C@@H](Cc2ccc(O)cc2)C(=O)N[C@@H]([C@@H](C)O)C(=O)N[C@@H](CC(N)=O)C(=O)N[C@@H](CCCNC(=N)N)C(=O)N[C@@H](CCN)C(=O)N[C@@H]([C@@H](C)O)C(=O)N[C@H](CCN)C(=O)N[C@@H](CCCCN)C(=O)N[C@@H](CCN)C(=O)N[C@@H](CCN)C(=O)N[C@H](C(=O)N[C@@H](Cc2ccc(O)cc2)C(=O)O)CSSC1(C)C [Example 7, Val-Pro((4S)F)-Ile-Pen-Tyr-Thr-Asn-Arg-Dab-Thr-^DDab-Lys-Dab-Dab-Cys-Tyr] (H-V[Pro(cis-4-F)]I[Pen]YTNR[Dab]T[dDab]K[Dab][Dab]CY-OH; disulfide 4-15) | <1%
8 | 0.25 µg/mL | 0.125 µg/mL | 0.0625 µg/mL | CC[C@H](C)[C@H](NC(=O)[C@@H]1C[C@@H](F)CN1C(=O)[C@@H](N)C(C)C)C(=O)N[C@@H]1C(=O)N[C@@H](Cc2ccc(O)cc2)C(=O)N[C@@H]([C@@H](C)O)C(=O)N[C@@H](CC(N)=O)C(=O)N[C@@H](CCCNC(=N)N)C(=O)N[C@@H](CCN)C(=O)N[C@@H]([C@@H](C)O)C(=O)N[C@H](CCN)C(=O)N[C@@H](CCCCN)C(=O)N[C@@H](CCN)C(=O)N[C@@H](CCN)C(=O)N[C@H](C(=O)N[C@@H](Cc2ccc(O)cc2)C(=O)O)CSSC1(C)C [Example 8, Val-Pro((4R)F)-Ile-Pen-Tyr-Thr-Asn-Arg-Dab-Thr-^DDab-Lys-Dab-Dab-Cys-Tyr] (H-V[Pro(trans-4-F)]I[Pen]YTNR[Dab]T[dDab]K[Dab][Dab]CY-OH; disulfide 4-15) | <1%
9 | 0.25 µg/mL | 0.125 µg/mL | 0.0625 µg/mL | CC[C@H](C)[C@H](NC(=O)[C@@H]1CC(F)(F)CN1C(=O)[C@@H](N)C(C)C)C(=O)N[C@@H]1C(=O)N[C@@H](Cc2ccc(O)cc2)C(=O)N[C@@H]([C@@H](C)O)C(=O)N[C@@H](CC(N)=O)C(=O)N[C@@H](CCCNC(=N)N)C(=O)N[C@@H](CCN)C(=O)N[C@@H]([C@@H](C)O)C(=O)N[C@H](CCN)C(=O)N[C@@H](CCCCN)C(=O)N[C@@H](CCN)C(=O)N[C@@H](CCN)C(=O)N[C@H](C(=O)N[C@@H](Cc2ccc(O)cc2)C(=O)O)CSSC1(C)C [Example 9, Val-Pro(4,4F2)-Ile-Pen-Tyr-Thr-Asn-Arg-Dab-Thr-^DDab-Lys-Dab-Dab-Cys-Tyr] (H-V[Pro(4,4-F2)]I[Pen]YTNR[Dab]T[dDab]K[Dab][Dab]CY-OH; disulfide 4-15) | <1%
